Measurements as given in ChEMBL document CHEMBL3217501, “Synthesis and biological evaluation of tetrazole containing compounds as possible anticancer agents” (Medchemcomm, 2011).
Calls of active or inactive are those of the source. No cut-off for these calls is given here.

Key:
SK-N-SH = assay: Cytotoxicity against human SK-N-SH cells assessed as growth inhibition after 48 hrs by SRB assay; type: functional, cell-based
A549 = assay: Cytotoxicity against human A549 cells assessed as growth inhibition after 48 hrs by SRB assay; type: functional, cell-based; details: A549, 48 h
DU-145 = assay: Cytotoxicity against human DU145 cells assessed as growth inhibition after 48 hrs by SRB assay; type: functional, cell-based; details: DU-145, 48 h
MDA-MB-231 = assay: Cytotoxicity against human MDA-MB-231 cells assessed as growth inhibition after 48 hrs by SRB assay; type: functional, cell-based; details: MDA-MB-231, 48 h
HepG2 = assay: Cytotoxicity against human HepG2 cells assessed as growth inhibition after 48 hrs by SRB assay; type: functional, cell-based; details: HepG2, 48 h
Calf thymus DNA [1] = assay: Binding affinity to calf thymus DNA by fluorescence spectroscopic analysis; type: nucleic-acid assay; details: Bos taurus
Calf thymus DNA [2] = assay: Binding affinity to calf thymus DNA assessed as compound-DNA complex formation by UV-Vis absorption spectroscopic analysis; type: nucleic-acid assay; details: Bos taurus

Structure (SMILES) | IC50 (SK-N-SH) [µM] | IC50 (A549) [µM] | IC50 (DU-145) [µM] | IC50 (MDA-MB-231) [µM] | IC50 (HepG2) [µM] | Activity (Calf thymus DNA [1]) | Kb (Calf thymus DNA [2]) [×10⁵ /M]
COc1cc([C@@H]2c3cc4c(cc3[C@H](O)[C@H]3COC(=O)[C@H]23)OCO4)cc(OC)c1OC [PODOFILOX] | < 0.1 | < 0.1 | < 0.1 | < 0.1 | < 0.1 |  | 
N#C/C(=C\c1ccc(C(F)(F)F)cc1)Cn1cnnn1 | 11.8 | 3.51 | 5.92 | 8.7 | 1.65 |  | 
COC(=O)/C(=C/c1ccc([N+](=O)[O-])cc1)Cn1cnnn1 | 22.3 | 2.84 | 5.5 | 9.14 | 2.07 |  | 
CCOC(=O)/C(=C/c1ccc(Cl)cc1)Cn1cnnn1 | 28.2 | 3.18 | 8.44 | 23.9 | 3 |  | 
Cc1ccc(/C=C(\C#N)Cn2cnnn2)cc1 | 20.1 | 7.95 | 7.3 | 25.7 | 6.56 |  | 
COc1ccc(/C=C(\C#N)Cn2cnnn2)cc1 | 64.2 | 23.8 | 19.4 | 20.3 | 27.4 |  | 
COC(=O)/C(=C/c1ccc(OC)cc1)Cn1cnnn1 | 7.9 | 3.83 | 5.6 | 21 | 6.65 |  | 
COC(=O)/C(=C/c1ccccc1[N+](=O)[O-])Cn1cnnn1 | 19.8 | 6.88 | 10.2 | 43.7 | 4.33 |  | 
COC(=O)/C(=C/c1ccc(F)cc1)Cn1cnnn1 | 18.3 | 6.9 | 8.57 | 15.9 | 12.1 |  | 
CCOC(=O)/C(=C/c1ccccc1Br)Cn1cnnn1 | 16.3 | 5.94 | 7.79 | 14.8 | 3.33 |  | 
Cc1nnnn1C/C(C#N)=C/c1ccc(F)cc1 | 20.2 | 6.4 | 7.19 | 28.8 | 7.29 |  | 
Cc1nnnn1C/C(C#N)=C/c1cccc2ccccc12 | 13.7 | 2.95 | 5.76 | 14.1 | 2.6 | Active | 0.75
COC(=O)Nc1nc2cc(C(=O)c3cccs3)ccc2[nH]1 [NOCODAZOLE] | < 0.1 | < 0.1 | < 0.1 | < 0.1 | < 0.1 |  | 
COC(=O)/C(=C/c1ccc(C)cc1)Cn1cnnn1 | 71.7 | 16 | 8.42 | 62.6 | 10.7 |  | 
N#C/C(=C\c1cccc2ccccc12)Cn1cnnn1 | 16.9 | 5.7 | 7.36 | 31.4 | 7.11 |  | 
CCOC(=O)/C(=C/c1ccc(Br)cc1)Cn1cnnn1 | 27.3 | 4.78 | 5.5 | 18.9 | 4.89 |  | 
COC(=O)/C(=C/c1ccccc1)Cn1cnnn1 | 31.6 | 7.91 | 9.02 | 16.4 | 10.7 |  | 
N#C/C(=C\c1ccccc1)Cn1cnnn1 | 23.3 | 9.99 | 9.45 | 18.4 | 5.83 |  | 
